Measurements taken from patent US9302999B2, “Substituted triazoles as herbicides” (E. I. DU PONT DE NEMOURS AND COMPANY, priority 2012, dated 2016).

Assays:
Format in all cases: in vivo
[1] = system: crabgrass, large (large crabgrass, Digitaria sanguinalis); assay: Test A pre-/postemergence: crabgrass, large
Summary of the method: (§1)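 Visual 0–100 injury ratings (0 no effect, 100 complete control) taken about ten days after treatment, relative to untreated controls. Preemergence treatment was a directed soil spray; postemergence plants were 2–10 cm tall at one- to two-leaf stage. Soil: loam/sand blend.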

[2] = system: foxtail, giant (giant foxtail, Setaria faberii); assay: Test A pre-/postemergence: foxtail, giant
Summary of the method: as §1

[3] = system: morningglory (Ipomoea spp.); assay: Test A pre-/postemergence: morningglory
Summary of the method: as §1

[4] = system: velvetleaf (Abutilon theophrasti); assay: Test A pre-/postemergence: velvetleaf
Summary of the method: as §1

[5] = system: blackgrass (Alopecurus myosuroides); assay: Test C pre-/postemergence: blackgrass
Summary of the method: (§2)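 Visual injury scored 0–100 (100 = complete control) against untreated controls after 13–15 greenhouse days. Surfactant-containing solvent formulations applied either to soil after sowing (loam/sand) or over 1- to 4-leaf plants, 2–18 cm tall.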

[6] = system: galium (catchweed bedstraw, Galium aparine); assay: Test C pre-/postemergence: galium
Summary of the method: as §2

[7] = system: johnsongrass (Sorghum halepense); assay: Test C pre-/postemergence: johnsongrass
Summary of the method: as §2

[8] = system: morningglory (Ipomoea coccinea); assay: Test C pre-/postemergence: morningglory
Summary of the method: as §2

[9] = system: Oilseed Rape; assay: Test C postemergence: oilseed rape; details: 62 g ai/ha, scale 0 to 100 (0 no effect, 100 complete control)
Summary of the method: (§3)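 Response values are visual ratings, 0 (no effect) to 100 (complete control), made by comparison with untreated controls 13 to 15 days after postemergence treatment of greenhouse-grown potted plants that were 2 to 18 cm high at spraying.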

[10] = system: Waterhemp; assay: Test C postemergence: waterhemp; details: 62 g ai/ha, scale 0 to 100 (0 no effect, 100 complete control)
Summary of the method: as §3

[11] = Postemergence, 125 g ai/ha, 0 to 100 scale, 0 is no effect, 100 is complete control
[12] = Postemergence, 500 g ai/ha, 0 to 100 scale, 0 is no effect, 100 is complete control
[13] = Preemergence, 125 g ai/ha, 0 to 100 scale where 0 is no effect and 100 is complete control
[14] = Preemergence, 500 g ai/ha, 0 to 100 scale (0 no effect, 100 complete control)
[15] = Postemergence, 31 g ai/ha, scale 0 to 100 (0 no effect, 100 complete control)
[16] = Postemergence, 62 g ai/ha, scale 0 to 100 (0 no effect, 100 complete control)
[17] = Postemergence, 125 g ai/ha, scale 0 to 100, 0 no effect, 100 complete control
[18] = Postemergence, 250 g ai/ha, scale 0 to 100
[19] = Preemergence, 31 g ai/ha, scale 0 (no effect) to 100 (complete control)
[20] = Preemergence, 62 g ai/ha, scale of 0 to 100, 0 is no effect, 100 is complete control
[21] = Preemergence, 125 g ai/ha, scale 0 to 100, 0 no effect, 100 complete control
[22] = Preemergence, 250 g ai/ha, scale 0 to 100, 0 no effect, 100 complete control
[23] = Postemergence, 250 g ai/ha, scale 0 to 100 (0 no effect, 100 complete control)

CCCc1nn(-c2ccc(C(F)(F)F)cc2)nc1Oc1ccnc(C(F)(F)F)c1 [Compound 170]
80: Plant response rating, Galium [6, 15] | Plant response rating, Johnsongrass [7, 17]
90: Plant response rating, Foxtail, Giant [2, 11] | Foxtail, Giant plant response rating [2, 12] | Plant response rating, Morningglory [3, 14] | Plant response rating, Velvetleaf [4, 13] | Plant response rating, Blackgrass [5, 19] | Plant response rating, Galium [6, 16] | Plant response rating, Galium [6, 17] | Plant response rating, Galium [6, 23]
50: Plant response rating, Johnsongrass [7, 19] | Plant response rating, Oilseed Rape [9]
55: Plant response rating, Morningglory [8, 20]
75: Plant response rating, Johnsongrass [7, 20] | Plant response rating, Morningglory [8, 15]
25: Plant response rating, Johnsongrass [7, 16]
70: Plant response rating, Morningglory [3, 13] | Plant response rating, Blackgrass [5, 18]
35: Plant response rating, Morningglory [8, 19]
20: Plant response rating, Johnsongrass [7, 15]
98: Plant response rating, Galium [6, 19] | Plant response rating, Johnsongrass [7, 23] | Plant response rating, Morningglory [8, 16] | Plant response rating, Waterhemp [10]
60: Plant response rating, Blackgrass [5, 17]
100: Plant response rating, Crabgrass, Large [1, 11] | Crabgrass, Large plant response rating [1, 12] | Plant response rating, Crabgrass, Large [1, 13] | Plant response rating, Crabgrass, Large [1, 14] | Plant response rating, Foxtail, Giant [2, 13] | Plant response rating, Foxtail, Giant [2, 14] | Plant response rating, Morningglory [3, 11] | Morningglory plant response rating [3, 12] | Plant response rating, Velvetleaf [4, 11] | Velvetleaf plant response rating [4, 12] | Plant response rating, Velvetleaf [4, 14] | Plant response rating, Blackgrass [5, 21] | Plant response rating, Blackgrass [5, 22] | Plant response rating, Galium [6, 20] | Plant response rating, Galium [6, 21] | Plant response rating, Galium [6, 22] | Plant response rating, Morningglory [8, 17] | Plant response rating, Morningglory [8, 23] | Plant response rating, Morningglory [8, 21] | Plant response rating, Morningglory [8, 22]
95: Plant response rating, Blackgrass [5, 20] | Plant response rating, Johnsongrass [7, 21] | Plant response rating, Johnsongrass [7, 22]
10: Plant response rating, Blackgrass [5, 15] | Plant response rating, Blackgrass [5, 16]

CCOc1nn(-c2ccc(Cl)cc2)nc1Cc1ccnc(C(F)(F)F)c1 [Compound 188]
70: Plant response rating, Velvetleaf [4, 11] | Plant response rating, Morningglory [8, 15]
40: Plant response rating, Velvetleaf [4, 13]
60: Plant response rating, Galium [6, 15] | Plant response rating, Morningglory [8, 20]
95: Plant response rating, Galium [6, 21] | Plant response rating, Galium [6, 22] | Plant response rating, Johnsongrass [7, 17] | Plant response rating, Johnsongrass [7, 21]
98: Plant response rating, Johnsongrass [7, 23] | Plant response rating, Johnsongrass [7, 22]
85: Plant response rating, Blackgrass [5, 17] | Plant response rating, Galium [6, 17] | Plant response rating, Johnsongrass [7, 20] | Plant response rating, Morningglory [8, 21]
45: Plant response rating, Johnsongrass [7, 15]
75: Plant response rating, Johnsongrass [7, 16]
20: Plant response rating, Morningglory [3, 13]
90: Plant response rating, Crabgrass, Large [1, 11] | Crabgrass, Large plant response rating [1, 12] | Plant response rating, Foxtail, Giant [2, 11] | Foxtail, Giant plant response rating [2, 12] | Plant response rating, Morningglory [3, 11] | Plant response rating, Morningglory [3, 14] | Velvetleaf plant response rating [4, 12] | Plant response rating, Velvetleaf [4, 14] | Plant response rating, Blackgrass [5, 18] | Plant response rating, Galium [6, 23] | Plant response rating, Galium [6, 19] | Plant response rating, Galium [6, 20] | Plant response rating, Oilseed Rape [9]
80: Plant response rating, Blackgrass [5, 19] | Plant response rating, Galium [6, 16]
100: Plant response rating, Crabgrass, Large [1, 13] | Plant response rating, Crabgrass, Large [1, 14] | Plant response rating, Foxtail, Giant [2, 13] | Plant response rating, Foxtail, Giant [2, 14] | Morningglory plant response rating [3, 12] | Plant response rating, Blackgrass [5, 20] | Plant response rating, Blackgrass [5, 21] | Plant response rating, Blackgrass [5, 22] | Plant response rating, Morningglory [8, 16] | Plant response rating, Morningglory [8, 17] | Plant response rating, Morningglory [8, 22] | Plant response rating, Waterhemp [10]
55: Plant response rating, Blackgrass [5, 15] | Plant response rating, Blackgrass [5, 16] | Plant response rating, Johnsongrass [7, 19]
